Marks after values point to notes of the source that are not given here.
What was measured:
UGT1A9 = UGT1A9 (Homo sapiens, UniProt O60656); assay: Salicylic acid; type: biochemical; settings: 5 mM salicylic acid, n=3
[1] = system: pooled human liver microsomes (pHLMs); assay: 5-HT glucuronidation by pooled human liver microsomes; type: biochemical; settings: pHLM, 4 mM 5-HT, n=3
UGT2B7 = target: T1, UGT2B7 (Homo sapiens, UniProt P16662); assay: AZT glucuronidation by recombinant UGT2B7; type: biochemical; settings: 500 μM AZT, n=3
T1 sequence (P16662 24-529): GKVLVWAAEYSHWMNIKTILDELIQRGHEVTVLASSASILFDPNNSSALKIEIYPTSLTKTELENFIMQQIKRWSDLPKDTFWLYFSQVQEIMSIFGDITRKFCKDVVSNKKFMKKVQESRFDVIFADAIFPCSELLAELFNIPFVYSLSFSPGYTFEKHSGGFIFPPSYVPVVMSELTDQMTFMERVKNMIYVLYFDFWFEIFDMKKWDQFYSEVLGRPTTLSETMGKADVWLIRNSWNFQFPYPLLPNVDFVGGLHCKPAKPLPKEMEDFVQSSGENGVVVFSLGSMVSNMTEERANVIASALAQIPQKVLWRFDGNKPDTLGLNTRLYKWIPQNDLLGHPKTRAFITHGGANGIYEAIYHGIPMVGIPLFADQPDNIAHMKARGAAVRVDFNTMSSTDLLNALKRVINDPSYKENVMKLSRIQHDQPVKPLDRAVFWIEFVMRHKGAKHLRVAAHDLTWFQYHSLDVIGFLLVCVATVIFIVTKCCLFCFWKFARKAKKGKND

rats = settings: in vivo in rats; ref Brunelle and Verbeeck (1997); cited from earlier work
[2] = system: pooled human liver microsomes (pHLMs); assay: Salicylic acid; type: biochemical; settings: pHLM, 5 mM salicylic acid, phenol glucuronide, n=3
UGT1A6 (insect) = target: T2, UGT1A6 (insect) (Homo sapiens, UniProt P19224); assay: 5-HT glucuronidation by recombinant UGT1A6; type: biochemical; settings: for 5-HT glucuronidation, % of the control activity (measured at 0 mM): UGT1A6 (insect), 4 mM 5-HT, n=3
T2 sequence (P19224 27-532): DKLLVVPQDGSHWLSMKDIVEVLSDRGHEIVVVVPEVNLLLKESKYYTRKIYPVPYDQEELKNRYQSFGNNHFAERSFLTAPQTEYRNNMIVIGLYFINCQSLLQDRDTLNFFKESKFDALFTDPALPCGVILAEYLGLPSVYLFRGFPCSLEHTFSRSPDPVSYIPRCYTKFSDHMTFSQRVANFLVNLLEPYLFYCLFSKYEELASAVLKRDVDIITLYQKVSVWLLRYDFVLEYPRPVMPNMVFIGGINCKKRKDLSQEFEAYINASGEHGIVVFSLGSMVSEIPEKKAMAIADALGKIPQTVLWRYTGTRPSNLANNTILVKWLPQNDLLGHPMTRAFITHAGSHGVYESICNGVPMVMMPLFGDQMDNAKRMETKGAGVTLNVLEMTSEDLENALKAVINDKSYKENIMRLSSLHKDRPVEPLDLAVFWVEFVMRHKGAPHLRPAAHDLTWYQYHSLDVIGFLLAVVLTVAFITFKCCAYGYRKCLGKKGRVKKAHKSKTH

UGT1A4 = target: T3, UGT1A4 (Homo sapiens, UniProt P22310); assay: Trifluoperazine glucuronidation by recombinant UGT1A4; type: biochemical; settings: for Trifluoperazine glucuronidation, % of the control activity (measured at 0 mM): UGT1A4, 200 μM trifluoperazine, n=3
T3 sequence (P22310 29-534): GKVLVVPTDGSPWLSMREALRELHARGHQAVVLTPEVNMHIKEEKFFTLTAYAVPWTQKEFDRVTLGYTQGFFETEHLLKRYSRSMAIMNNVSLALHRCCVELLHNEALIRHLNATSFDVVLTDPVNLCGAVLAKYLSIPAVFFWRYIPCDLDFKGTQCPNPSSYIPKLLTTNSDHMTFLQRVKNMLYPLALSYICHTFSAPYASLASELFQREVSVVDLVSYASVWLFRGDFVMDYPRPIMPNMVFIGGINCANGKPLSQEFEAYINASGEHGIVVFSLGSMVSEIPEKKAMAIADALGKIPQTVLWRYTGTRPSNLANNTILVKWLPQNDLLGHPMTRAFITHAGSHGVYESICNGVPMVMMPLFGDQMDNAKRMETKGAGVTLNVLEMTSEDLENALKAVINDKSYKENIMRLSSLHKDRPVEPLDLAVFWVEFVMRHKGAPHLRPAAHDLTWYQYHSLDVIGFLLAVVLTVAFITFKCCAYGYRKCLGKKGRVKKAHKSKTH

[3] = system: pooled human liver microsomes (pHLMs); assay: Codeine glucuronidation by pHLMs; type: biochemical; settings: for Codeine glucuronidation, % of the control activity (measured at 0 mM): pHLM, 1 mM codeine, n=3
UGT2B15 = UGT2B15 (Homo sapiens, UniProt P54855); assay: e-4-hydroxy-tamoxifen glucuronidation by insect cell-expressed UGT2B15; type: biochemical; settings: 20 mM saccharolactone, pH-adjusted to 7.5
rat liver microsomes = settings: 4 mM saccharolactone, ref Brunelle & Verbeeck 1993; cited from earlier work

Sequence of UGT1A9 (O60656 26-530): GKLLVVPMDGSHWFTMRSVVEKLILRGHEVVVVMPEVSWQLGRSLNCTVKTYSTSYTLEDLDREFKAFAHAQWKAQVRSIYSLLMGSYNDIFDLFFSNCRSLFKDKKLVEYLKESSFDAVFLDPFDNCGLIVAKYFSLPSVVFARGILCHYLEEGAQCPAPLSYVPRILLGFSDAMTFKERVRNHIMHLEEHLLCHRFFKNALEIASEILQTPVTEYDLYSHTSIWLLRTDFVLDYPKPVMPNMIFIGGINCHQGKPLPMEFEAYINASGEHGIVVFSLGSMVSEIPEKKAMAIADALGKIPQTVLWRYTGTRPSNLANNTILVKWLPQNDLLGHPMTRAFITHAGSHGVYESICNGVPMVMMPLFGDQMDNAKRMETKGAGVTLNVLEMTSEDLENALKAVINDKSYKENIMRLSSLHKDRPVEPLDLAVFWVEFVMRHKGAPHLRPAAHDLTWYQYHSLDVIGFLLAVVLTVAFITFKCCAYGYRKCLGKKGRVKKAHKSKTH
Sequence of UGT2B15 (P54855 24-530): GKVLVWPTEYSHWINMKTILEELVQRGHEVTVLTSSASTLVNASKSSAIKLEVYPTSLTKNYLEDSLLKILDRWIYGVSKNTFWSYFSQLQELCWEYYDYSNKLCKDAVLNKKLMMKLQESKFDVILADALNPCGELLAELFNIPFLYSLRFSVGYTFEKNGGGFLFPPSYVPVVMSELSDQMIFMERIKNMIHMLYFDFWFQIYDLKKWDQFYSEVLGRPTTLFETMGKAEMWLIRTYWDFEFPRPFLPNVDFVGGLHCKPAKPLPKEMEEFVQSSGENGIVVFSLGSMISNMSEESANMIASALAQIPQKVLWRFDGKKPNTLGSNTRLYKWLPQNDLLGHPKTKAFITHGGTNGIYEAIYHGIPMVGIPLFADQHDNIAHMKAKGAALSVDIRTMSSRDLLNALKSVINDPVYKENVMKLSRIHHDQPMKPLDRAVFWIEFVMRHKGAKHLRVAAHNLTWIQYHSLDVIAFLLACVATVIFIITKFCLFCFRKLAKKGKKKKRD

O=C(O)[C@@H](O)[C@H]1OC(=O)[C@H](O)[C@H]1O [saccharolactone, D-saccharic acid 1,4-lactone]
Salicylic Acid glucuronidation, % of the control activity (measured at 0 mM) (UGT1A9; 5 mM saccharolactone): 96±7% | Salicylic Acid glucuronidation, % of the control activity (measured at 0 mM) (UGT1A9; 20 mM saccharolactone): 99±7% | 5-HT glucuronidation, % of the control activity (measured at 0 mM) ([1]; 1 mM saccharolactone (pH-adjusted)): 104±8% | 5-HT glucuronidation, % of the control activity (measured at 0 mM) ([1]; 2 mM saccharolactone (pH-adjusted)): 93±5% | 5-HT glucuronidation, % of the control activity (measured at 0 mM) ([1]; 5 mM saccharolactone (pH-adjusted)): 86±4 ^a % | 5-HT glucuronidation, % of the control activity (measured at 0 mM) ([1]; 10 mM saccharolactone (pH-adjusted)): 87±4 ^a % | 5-HT glucuronidation, % of the control activity (measured at 0 mM) ([1]; 20 mM saccharolactone (pH-adjusted)): 63±5 ^a % | AZT glucuronidation, % of the control activity (measured at 0 mM) (UGT2B7; 5 mM saccharolactone): 102±2% | AZT glucuronidation, % of the control activity (measured at 0 mM) (UGT2B7; 20 mM saccharolactone): 102±8% | effect on partial clearance of diflunisal acyl glucuronide (rats): increase | effect on partial clearance of diflunisal phenol glucuronide (rats): little effect | Salicylic Acid glucuronidation, % of the control activity (measured at 0 mM) ([2]; 1 mM saccharolactone): 101±5% | Salicylic Acid glucuronidation, % of the control activity (measured at 0 mM) ([2]; 2 mM saccharolactone): 111±5% | Salicylic Acid glucuronidation, % of the control activity (measured at 0 mM) ([2]; 5 mM saccharolactone): 83±3 ^a % | Salicylic Acid glucuronidation, % of the control activity (measured at 0 mM) ([2]; 10 mM saccharolactone): 90±1% | Salicylic Acid glucuronidation, % of the control activity (measured at 0 mM) ([2]; 20 mM saccharolactone): 85±9 ^a % | 5-HT glucuronidation, % of the control activity (measured at 0 mM) (UGT1A6 (insect); 5 mM saccharolactone): 88±7% | 5-HT glucuronidation, % of the control activity (measured at 0 mM) (UGT1A6 (insect); 20 mM saccharolactone): 96±0% | effect on 5-hydroxytryptamine glucuronidation (UGT1A6 (insect); UGT1A6 expressed in insect cells, saccharolactone up to 20 mM): no effect | Trifluoperazine glucuronidation, % of the control activity (measured at 0 mM) (UGT1A4; 5 mM saccharolactone): 90±4% | Trifluoperazine glucuronidation, % of the control activity (measured at 0 mM) (UGT1A4; 20 mM saccharolactone): 82±5 ^a % | inhibition at 20 mM (UGT1A4; human, pH 7.5, probe trifluoperazine): 18% | Codeine glucuronidation, % of the control activity (measured at 0 mM) ([3]; 1 mM saccharolactone): 98±7% | Codeine glucuronidation, % of the control activity (measured at 0 mM) ([3]; 2 mM saccharolactone): 97±4% | Codeine glucuronidation, % of the control activity (measured at 0 mM) ([3]; 5 mM saccharolactone): 91±2 ^a % | Codeine glucuronidation, % of the control activity (measured at 0 mM) ([3]; 10 mM saccharolactone): 95±5% | Codeine glucuronidation, % of the control activity (measured at 0 mM) ([3]; 20 mM saccharolactone): 88±8% | inhibition of codeine glucuronidation ([3]; pHLMs, 5 mM saccharolactone, p<0.05): 9% | decrease in e-4-hydroxy-tamoxifen glucuronidation activity (UGT2B15): 25% | change in diflunisal phenol glucuronide formation (rat liver microsomes): no change | increase of diflunisal acyl glucuronide formation (Vmax) (rat liver microsomes): 2 fold
